Tests used:
BRAF(V600E) = molecular target: T1, BRAF(V600E) (Homo sapiens, UniProt P15056, V600E); experiment: KinomeScan kinase profiling; format: binding
T1 construct: purchased Ambit Biosciences (San Diego, Calif.)
Description: (§2) The selectivity of a given CK1δ, CK1ε or CK1δ-CK1ε inhibitor compound can be determined by testing the compound against a panel of known kinases. An example of such a kinase profiling technology is the “KinomeScan” from Ambit Biosciences in which compounds can be screened for their modulatory activities against more than 200 known kinases.

KIT = molecular target: T2, KIT (Homo sapiens, UniProt P10721); experiment: KinomeScan kinase profiling; format: binding
T2 construct: purchased Ambit Biosciences (San Diego, Calif.)
Description: as §2

EPHB4 = molecular target: T3, EPHB4 (Homo sapiens, UniProt P54760); experiment: KinomeScan kinase profiling; format: binding
T3 construct: purchased Ambit Biosciences (San Diego, Calif.)
Description: as §2

CDK5 = molecular target: T4, CDK5 (Homo sapiens, UniProt Q00535); experiment: KinomeScan kinase profiling; format: binding
T4 construct: purchased Ambit Biosciences (San Diego, Calif.)
Description: as §2

EPHA3 = molecular target: T5, EPHA3 (Homo sapiens, UniProt P29320); experiment: KinomeScan kinase profiling; format: binding
T5 construct: purchased Ambit Biosciences (San Diego, Calif.)
Description: as §2

BRAF = molecular target: T6, BRAF (Homo sapiens, UniProt P15056); experiment: KinomeScan kinase profiling; format: binding
T6 construct: purchased Ambit Biosciences (San Diego, Calif.)
Description: as §2

FGFR2 = molecular target: T7, FGFR2 (Homo sapiens, UniProt P21802); experiment: KinomeScan kinase profiling; format: binding
T7 construct: purchased Ambit Biosciences (San Diego, Calif.)
Description: as §2

STK3 = molecular target: T8, STK3 (Homo sapiens, UniProt Q13188); experiment: KinomeScan kinase profiling; format: binding
T8 construct: purchased Ambit Biosciences

PCTK1 = molecular target: T9, PCTK1 (Homo sapiens, UniProt Q00536); experiment: KinomeScan kinase profiling; format: binding
T9 construct: purchased Ambit Biosciences (San Diego, Calif.)
Description: as §2

inflammatory synovitis = experiment: Air pouch synovitis model; format: in vivo, Balbc/J mice; details: 1 μg LPS, FIG. 3
Description: (§1) Selective CK1δ, CK1ε or CK1δ-CK1ε inhibitors can be tested for their antiinflammatory effects using a variety of in vitro and in vivo tests that are well known in the art. One such in vitro test involves the application of the inhibitor to human neutrophils to observe whether the induction of inflammatory cytokines, such as IL-8, by tumor necrosis factor (TNF) or lipopolysaccharide (LPS) can be reduced. This test is further described in Example 2. An example of an in vivo test, as described in Example 3, is the air pouch model of inflammatory synovitis in mice in which the inhibitors are tested for their blockade of neutrophil influx as well as of inflammatory cytokine accumulation.
Adult Balbc/J mice were purchased from Charles River Labs and housed and utilized according IACUC protocols and standards. The airpouch was inflated on the dorsal surface of each mouse with 3 ml of air, after light anesthesia with CO2/O2 mix. Three days later each pouch was re-inflated with 3 mls of air. After an additional three days, the pouches were injected with vehicle or compound (normally in 0.1% DMSO in PBS) in 1 ml per pouch. After 20 to 30 minutes, each pouch received 1 μg of LPS or control (PBS). The animals were euthanized four to six hours later. The pouches were flushed with 2 ml of PBS, the cells were then collected, counted and normalized for volume recovered. The fluid recovered was analyzed for cytokine production (Luminex Mouse 21-plex assay). The cells were lysed for RNA or protein analysis.

[1] = test system: IL-8 production in neutrophils; experiment: Neutrophil assay: IL-8 production after stimulation by inflammatory agents; format: cell-based; details: human neutrophils stimulated by inflammatory agents, FIG. 2
Description: as §1
The Histopaque 1077 and 1119 gradient density centrifugation method (Sigma-Aldrich) was used to isolate granulocytes from human blood. The granulocytes were recovered from the 1077/1119 interphase, washed twice with PBS. The red blood cells were lysed with PureGene red cell lysis buffer (Gentra Biosystems). The cells were washed again and resuspended in growth media (RPMI, 10% FBS, β-mercaptoethanol, Pen/Strep/glutamine and sodium pyruvate) at a density of 1 to 5 million per ml. […] The supernatant was analyzed for cytokine production (Luminex human 22-plex assay) and the cells were lysed for RNA production and analysis.

T3 sequence (P54760 16-987): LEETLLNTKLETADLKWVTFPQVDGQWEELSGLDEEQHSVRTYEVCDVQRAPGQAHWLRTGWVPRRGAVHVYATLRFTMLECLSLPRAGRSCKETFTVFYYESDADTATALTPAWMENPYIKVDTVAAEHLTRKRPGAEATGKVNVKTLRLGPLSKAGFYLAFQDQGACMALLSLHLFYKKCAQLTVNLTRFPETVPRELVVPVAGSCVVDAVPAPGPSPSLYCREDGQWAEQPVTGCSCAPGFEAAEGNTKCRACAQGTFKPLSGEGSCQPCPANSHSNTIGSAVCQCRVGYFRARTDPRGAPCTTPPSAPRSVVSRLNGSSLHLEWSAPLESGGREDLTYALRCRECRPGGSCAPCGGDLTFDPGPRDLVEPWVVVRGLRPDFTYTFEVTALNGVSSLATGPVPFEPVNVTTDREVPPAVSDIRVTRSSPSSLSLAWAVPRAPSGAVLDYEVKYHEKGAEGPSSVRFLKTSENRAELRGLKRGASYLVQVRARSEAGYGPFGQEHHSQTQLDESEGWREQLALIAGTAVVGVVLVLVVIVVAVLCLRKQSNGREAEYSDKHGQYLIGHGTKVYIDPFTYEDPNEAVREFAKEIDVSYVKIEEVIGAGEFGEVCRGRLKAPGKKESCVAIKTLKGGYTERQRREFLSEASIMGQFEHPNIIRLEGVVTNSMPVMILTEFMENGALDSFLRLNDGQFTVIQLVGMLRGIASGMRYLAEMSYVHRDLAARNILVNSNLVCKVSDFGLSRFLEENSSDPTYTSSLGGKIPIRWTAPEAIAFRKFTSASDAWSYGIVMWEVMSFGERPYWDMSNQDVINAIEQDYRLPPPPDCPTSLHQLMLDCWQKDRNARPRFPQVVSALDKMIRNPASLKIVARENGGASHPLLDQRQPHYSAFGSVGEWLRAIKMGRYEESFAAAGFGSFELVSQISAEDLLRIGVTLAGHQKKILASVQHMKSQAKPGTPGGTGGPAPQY
T9 sequence (Q00536 whole entry): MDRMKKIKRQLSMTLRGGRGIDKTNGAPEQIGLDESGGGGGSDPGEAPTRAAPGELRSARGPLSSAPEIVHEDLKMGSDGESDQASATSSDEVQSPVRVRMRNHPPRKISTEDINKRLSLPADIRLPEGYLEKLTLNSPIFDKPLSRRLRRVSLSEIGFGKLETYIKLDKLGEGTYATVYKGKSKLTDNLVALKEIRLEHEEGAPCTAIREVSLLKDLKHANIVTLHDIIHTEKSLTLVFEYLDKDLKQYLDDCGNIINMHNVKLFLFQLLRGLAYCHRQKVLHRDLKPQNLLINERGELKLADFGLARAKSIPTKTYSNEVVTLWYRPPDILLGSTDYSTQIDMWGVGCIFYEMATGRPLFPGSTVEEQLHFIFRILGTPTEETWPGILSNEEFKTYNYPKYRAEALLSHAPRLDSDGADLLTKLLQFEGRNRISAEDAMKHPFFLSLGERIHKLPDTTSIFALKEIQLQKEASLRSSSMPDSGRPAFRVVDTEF
T8 sequence (Q13188 whole entry): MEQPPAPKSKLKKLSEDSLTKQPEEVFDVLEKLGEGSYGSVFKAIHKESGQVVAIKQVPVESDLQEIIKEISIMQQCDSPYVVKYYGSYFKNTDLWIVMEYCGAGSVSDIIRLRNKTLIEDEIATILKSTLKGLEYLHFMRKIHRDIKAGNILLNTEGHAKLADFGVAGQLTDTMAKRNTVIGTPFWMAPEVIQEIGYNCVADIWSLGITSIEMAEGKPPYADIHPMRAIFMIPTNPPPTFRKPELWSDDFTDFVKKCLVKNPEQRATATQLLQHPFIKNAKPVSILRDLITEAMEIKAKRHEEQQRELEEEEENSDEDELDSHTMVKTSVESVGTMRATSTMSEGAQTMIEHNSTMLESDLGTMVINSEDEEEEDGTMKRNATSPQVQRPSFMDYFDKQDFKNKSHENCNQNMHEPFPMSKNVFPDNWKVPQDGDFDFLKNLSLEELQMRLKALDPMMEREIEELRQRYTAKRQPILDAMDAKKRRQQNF
T4 sequence (Q00535 whole entry): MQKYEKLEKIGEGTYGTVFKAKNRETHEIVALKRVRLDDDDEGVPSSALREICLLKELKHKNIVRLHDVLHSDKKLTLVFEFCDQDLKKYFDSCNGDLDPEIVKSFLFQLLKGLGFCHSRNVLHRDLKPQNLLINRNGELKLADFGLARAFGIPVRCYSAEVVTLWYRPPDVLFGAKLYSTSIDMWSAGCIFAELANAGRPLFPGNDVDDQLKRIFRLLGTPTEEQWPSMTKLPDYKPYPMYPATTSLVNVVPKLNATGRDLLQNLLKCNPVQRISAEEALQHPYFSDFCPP
T7 sequence (P21802 22-821): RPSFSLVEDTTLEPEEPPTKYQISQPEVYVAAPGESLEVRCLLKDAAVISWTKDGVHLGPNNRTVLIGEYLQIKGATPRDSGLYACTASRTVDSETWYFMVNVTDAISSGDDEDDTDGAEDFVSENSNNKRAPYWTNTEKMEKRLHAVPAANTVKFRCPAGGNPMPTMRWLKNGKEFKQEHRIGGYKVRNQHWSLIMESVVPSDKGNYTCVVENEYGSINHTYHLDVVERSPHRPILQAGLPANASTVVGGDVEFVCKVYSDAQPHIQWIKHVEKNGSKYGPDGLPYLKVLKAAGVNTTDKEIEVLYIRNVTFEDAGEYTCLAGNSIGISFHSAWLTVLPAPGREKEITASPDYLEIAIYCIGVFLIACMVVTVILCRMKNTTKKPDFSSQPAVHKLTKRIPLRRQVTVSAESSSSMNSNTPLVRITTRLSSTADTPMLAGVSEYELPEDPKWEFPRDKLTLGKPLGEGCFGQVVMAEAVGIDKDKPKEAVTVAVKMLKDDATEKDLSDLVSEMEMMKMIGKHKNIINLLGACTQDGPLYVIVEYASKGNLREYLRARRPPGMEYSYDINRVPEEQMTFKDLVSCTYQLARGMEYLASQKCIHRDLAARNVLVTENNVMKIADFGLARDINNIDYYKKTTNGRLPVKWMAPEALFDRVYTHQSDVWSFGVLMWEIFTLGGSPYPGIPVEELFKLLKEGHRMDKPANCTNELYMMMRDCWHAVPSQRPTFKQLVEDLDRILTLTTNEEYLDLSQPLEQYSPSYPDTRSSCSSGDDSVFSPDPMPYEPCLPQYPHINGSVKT
T2 sequence (P10721 26-976): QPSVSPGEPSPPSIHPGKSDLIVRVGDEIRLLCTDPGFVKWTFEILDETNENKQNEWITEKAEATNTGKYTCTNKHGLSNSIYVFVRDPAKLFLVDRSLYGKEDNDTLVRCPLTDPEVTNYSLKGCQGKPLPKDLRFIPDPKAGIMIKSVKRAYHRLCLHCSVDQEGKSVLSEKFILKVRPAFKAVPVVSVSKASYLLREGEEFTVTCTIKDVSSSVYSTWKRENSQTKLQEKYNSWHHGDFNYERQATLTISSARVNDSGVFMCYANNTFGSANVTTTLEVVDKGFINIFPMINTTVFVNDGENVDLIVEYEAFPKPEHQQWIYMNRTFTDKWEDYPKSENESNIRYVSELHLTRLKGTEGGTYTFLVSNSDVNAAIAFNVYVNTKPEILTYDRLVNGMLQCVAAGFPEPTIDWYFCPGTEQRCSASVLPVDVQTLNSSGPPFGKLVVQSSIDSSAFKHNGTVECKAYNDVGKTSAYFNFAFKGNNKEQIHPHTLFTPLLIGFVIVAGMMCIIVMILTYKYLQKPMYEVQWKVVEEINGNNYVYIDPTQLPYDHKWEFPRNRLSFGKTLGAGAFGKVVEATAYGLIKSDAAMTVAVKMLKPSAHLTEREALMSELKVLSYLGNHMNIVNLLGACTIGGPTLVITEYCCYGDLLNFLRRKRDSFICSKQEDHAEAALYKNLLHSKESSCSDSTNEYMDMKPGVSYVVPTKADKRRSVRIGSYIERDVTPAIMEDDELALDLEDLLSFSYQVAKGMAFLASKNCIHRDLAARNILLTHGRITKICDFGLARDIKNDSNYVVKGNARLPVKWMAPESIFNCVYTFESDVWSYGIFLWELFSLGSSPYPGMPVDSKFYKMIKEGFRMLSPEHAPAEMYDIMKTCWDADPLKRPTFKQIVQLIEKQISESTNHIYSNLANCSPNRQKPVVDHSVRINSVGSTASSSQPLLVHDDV
T5 sequence (P29320 21-983): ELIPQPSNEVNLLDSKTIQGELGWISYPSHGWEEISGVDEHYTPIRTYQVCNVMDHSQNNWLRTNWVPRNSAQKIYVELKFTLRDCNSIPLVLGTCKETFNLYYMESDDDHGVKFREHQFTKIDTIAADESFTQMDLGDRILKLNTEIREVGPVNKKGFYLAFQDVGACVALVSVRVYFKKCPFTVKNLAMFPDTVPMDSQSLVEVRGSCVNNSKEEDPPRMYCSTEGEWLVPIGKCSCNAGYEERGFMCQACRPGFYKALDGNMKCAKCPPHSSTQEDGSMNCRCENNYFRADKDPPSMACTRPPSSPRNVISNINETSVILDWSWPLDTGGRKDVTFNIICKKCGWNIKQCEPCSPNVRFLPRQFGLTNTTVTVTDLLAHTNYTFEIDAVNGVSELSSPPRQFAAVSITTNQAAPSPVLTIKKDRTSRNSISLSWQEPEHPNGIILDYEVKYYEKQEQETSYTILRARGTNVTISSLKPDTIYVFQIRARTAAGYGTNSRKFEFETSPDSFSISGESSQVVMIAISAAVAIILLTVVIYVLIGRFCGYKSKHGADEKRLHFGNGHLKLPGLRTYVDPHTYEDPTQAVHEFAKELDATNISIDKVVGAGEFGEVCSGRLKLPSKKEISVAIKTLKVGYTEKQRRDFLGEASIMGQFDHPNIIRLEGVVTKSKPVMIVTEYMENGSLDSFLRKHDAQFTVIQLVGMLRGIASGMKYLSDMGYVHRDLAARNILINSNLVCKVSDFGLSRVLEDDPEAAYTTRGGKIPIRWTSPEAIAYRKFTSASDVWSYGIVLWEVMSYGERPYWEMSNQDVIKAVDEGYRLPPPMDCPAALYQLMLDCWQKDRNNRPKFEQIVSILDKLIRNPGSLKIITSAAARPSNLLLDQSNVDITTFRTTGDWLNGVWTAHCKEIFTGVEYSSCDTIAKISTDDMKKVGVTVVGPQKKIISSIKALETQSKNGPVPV

SMILES | inhibition at 10 µM (BRAF(V600E)) [%] | inhibition at 10 µM (KIT) [%] | inhibition at 10 µM (EPHB4) [%] | inhibition at 10 µM (CDK5) [%] | inhibition at 10 µM (EPHA3) [%] | inhibition at 10 µM (BRAF) [%] | inhibition at 10 µM (FGFR2) [%] | inhibition at 10 µM (STK3) [%] | inhibition at 10 µM (PCTK1) [%] | production of IL-6 (inflammatory synovitis; mouse air pouch fluid) | production of MCP1 (inflammatory synovitis; mouse air pouch fluid) | neutrophil influx (inflammatory synovitis; mouse air pouch, compound injected into pouch) | inhibition of IL-8 production in neutrophils [1]
NC(=O)c1ccc(-c2nc(-c3ccc4c(c3)OCCO4)c(-c3ccccn3)[nH]2)cc1 [D4476, 4-[4-(2,3-Dihydro-benzo[1,4]dioxin-6-yl)-5-pyridin-2-yl-1H-imidazol-2-yl]benzamide] | < 50 | < 50 | < 50 | < 50 | < 50 | < 50 | < 50 | < 50 | < 50 | – | – | – | –
NC(=O)c1ccc(-c2nc(-c3ccc4c(c3)OCO4)c(-c3ccccn3)[nH]2)cc1 [SB431542, 4-(4-benzo-[1,3]dioxol-5-yl-5-pyridin-2-yl-1H-imidazol-2-yl)benzamide] | – | < 50 | < 50 | < 50 | < 50 | – | < 50 | < 50 | < 50 | inhibited | inhibited | inhibited | dose-dependent inhibition
